Assay results from patent EP3636255A1 (priority 2018, dated 2020).
Like-named read-outs stand apart in the source and are kept apart here.

Tests used:
[1] = system: Vesicular Stomatitis Virus (VSV); format: cell-based
yeast cells = assay: Yeast growth assay (ten-fold serial dilution spotting) of WT yeast with empty vector or expressing mammalian ceramide synthases; settings: 48 h at 30°C
anthrax toxin = format: cell-based, human; settings: RPE1 cells, 1 µM overnight
[2] = system: CerS3 cells lacking the indicated genes; assay: Yeast growth assay of CerS3 cells lacking genes identified as hypersensitive by SATAY; settings: 2.5 µM; 48 h at 30°C

| SMILES | inhibition of viral infection, concentration dependence [1] | viral infection (GFP-positive cells) [1] | reduction of viral infectivity ([1]; 1 µM) | cellular toxicity (RPE1 cells) | toxicity (cell count by DAPI-based nuclei count) (HeLaMZ cells) | toxicity (cell number by DAPI nuclei count) (HeLaMZ cells; at 1µM) | sensitivity (colony size and density) (yeast cells; WT+CerS1, 5 to 20 µM) | sensitivity (colony size and density) (yeast cells; WT+CerS2, 5 to 20 µM) | sensitivity (colony size and density) (yeast cells; WT+CerS3, already at 5 µM) | sensitivity (colony size and density) (yeast cells; WT+CerS4, 5 to 20 µM) | sensitivity (colony size and density) (yeast cells; WT+CerS5, 10 µM) | sensitivity (colony size and density) (yeast cells; WT+CerS5, 20 µM) | sensitivity (colony size and density) (yeast cells; WT+CerS6, 10 µM) | sensitivity (colony size and density) (yeast cells; WT+CerS6, 20 µM) | sensitivity (colony size and density) (yeast cells; WT+EV (empty vector), 5 to 20 µM) | LF activity (anthrax toxin; 500 ng/ml PA83 and 50 ng/ml LF) | PA processing (PA83 to PA63, heptamer formation) (anthrax toxin; 500 ng/ml PA83 and 50 ng/ml LF) | MEK1(N) cleavage (anthrax toxin; control cleaved within 90 to 120 min) | sensitivity of the mutants (colony size and density) [2] | toxicity (cell number by DAPI nuclei count) (HeLaMZ cells; 0.2-2 µM) |
| --- | --- | --- | --- | --- | --- | --- | --- | --- | --- | --- | --- | --- | --- | --- | --- | --- | --- | --- | --- | --- |
| CCCCCCCCCCCCCCCC(O)C(C)N (centres unmarked) [Formula 1, 2-aminooctadecan-3-ol] | Concentration dependent inhibition | reduced viral infection | substantial | not toxic | not toxic | starts to show some toxicity | insensitive | insensitive | highly sensitive | insensitive | mildly sensitive | highly sensitive | mildly sensitive | highly sensitive | insensitive | prevented | unaffected | stabilized | slightly more sensitive |  |
| C#CCCCCCCCCCCCCCC(O)C(C)N (centres unmarked) [Formula 2, 2-aminooctadec-17-yn-3-ol] |  |  |  |  |  |  |  |  |  |  |  |  |  |  |  |  |  |  |  | very little toxicity |
